Measured values reported in PubChem BioAssay AID1963871 (Molecular Pharmacology Branch, DTP, NCI, 2024).

Test system: KRAS-mutant PDC multicell tumor spheroid viability
Assay: Anticancer human tumor 521955-158-R2-J5-PDC patient-derived pancreatic carcinoma cell line growth inhibition [KRAS2]
Conditions: for IC50: curve of first compound; for viability, T/C: stronger effect = lower value
Method in brief: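 Combination screen of spheroid viability in tumor-cell co-cultures with endothelial (HUVEC) and mesenchymal stem cell stroma. Each agent was tested in half-log dilutions, topping at clinical Cmax or at 10 microM without a known Cmax.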

[1] = second compound 0.1 µM, first compound 0.0316 µM
[2] = second compound 0.1 µM, first compound 0.1 µM
[3] = second compound 0.1 µM, first compound 0.316 µM
[4] = second compound 0.1 µM, first compound 1 µM
[5] = second compound 0.1 µM, first compound 3.16 µM
[6] = second compound 0.1 µM, first compound 10 µM
[7] = second compound 0.316 µM, first compound 0.0316 µM
[8] = second compound 0.316 µM, first compound 0.1 µM
[9] = second compound 0.316 µM, first compound 0.316 µM
[10] = second compound 0.316 µM, first compound 1 µM
[11] = second compound 0.316 µM, first compound 3.16 µM
[12] = second compound 0.316 µM, first compound 10 µM
[13] = second compound 1 µM, first compound 0.0316 µM
[14] = second compound 1 µM, first compound 0.1 µM
[15] = second compound 1 µM, first compound 0.316 µM
[16] = second compound 1 µM, first compound 1 µM
[17] = second compound 1 µM, first compound 3.16 µM
[18] = second compound 1 µM, first compound 10 µM
[19] = second compound 3.16 µM, first compound 0.0316 µM
[20] = second compound 3.16 µM, first compound 0.1 µM
[21] = second compound 3.16 µM, first compound 0.316 µM
[22] = second compound 3.16 µM, first compound 1 µM
[23] = second compound 3.16 µM, first compound 3.16 µM
[24] = second compound 3.16 µM, first compound 10 µM
[25] = second compound 10 µM, first compound 0.0316 µM
[26] = second compound 10 µM, first compound 0.1 µM
[27] = second compound 10 µM, first compound 0.316 µM
[28] = second compound 10 µM, first compound 1 µM
[29] = second compound 10 µM, first compound 3.16 µM
[30] = second compound 10 µM, first compound 10 µM
[31] = second compound 0.1 µM, first compound 0.00316 µM
[32] = second compound 0.1 µM, first compound 0.01 µM
[33] = second compound 0.316 µM, first compound 0.00316 µM
[34] = second compound 0.316 µM, first compound 0.01 µM
[35] = second compound 1 µM, first compound 0.00316 µM
[36] = second compound 1 µM, first compound 0.01 µM
[37] = second compound 3.16 µM, first compound 0.00316 µM
[38] = second compound 3.16 µM, first compound 0.01 µM
[39] = second compound 10 µM, first compound 0.00316 µM
[40] = second compound 10 µM, first compound 0.01 µM
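Note: viability read after seven days of drug exposure.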

## CC(C)NCC(C(=O)N1CCN(c2ncnc3c2C(C)CC3O)CC1)c1ccc(Cl)cc1 (stereo not given) + COc1cc2nc(C)nc(NC(C)c3cc(N)cc(C(F)(F)F)c3)c2cc1OC1CCOC1
Second compound 0.1 µM
  IC50: > 10000 nM
Second compound 0.316 µM
  IC50: > 10000 nM
Second compound 1 µM
  IC50: > 10000 nM
Second compound 3.16 µM
  IC50: > 10000 nM
Second compound 10 µM
  IC50: 197 nM
[1]
  viability, T/C: 89.3%
[2]
  viability, T/C: 92.2%
[3]
  viability, T/C: 70.4%
[4]
  viability, T/C: 75.2%
[5]
  viability, T/C: 70.9%
[6]
  viability, T/C: 56.4%
[7]
  viability, T/C: 95.9%
[8]
  viability, T/C: 86%
[9]
  viability, T/C: 71.7%
[10]
  viability, T/C: 67.5%
[11]
  viability, T/C: 71%
[12]
  viability, T/C: 60.7%
[13]
  viability, T/C: 81.3%
[14]
  viability, T/C: 86.6%
[15]
  viability, T/C: 60.2%
[16]
  viability, T/C: 64.1%
[17]
  viability, T/C: 63.7%
[18]
  viability, T/C: 60.8%
[19]
  viability, T/C: 87.3%
[20]
  viability, T/C: 93.1%
[21]
  viability, T/C: 72.2%
[22]
  viability, T/C: 56.8%
[23]
  viability, T/C: 59.4%
[24]
  viability, T/C: 43.5%
[25]
  viability, T/C: 48.7%
[26]
  viability, T/C: 65.2%
[27]
  viability, T/C: 43%
[28]
  viability, T/C: 29.7%
[29]
  viability, T/C: 14.3%
[30]
  viability, T/C: 4.84%

## CC1(C)CCC(CN2CCN(c3ccc(C(=O)NS(=O)(=O)c4ccc(NCC5CCOCC5)c([N+](=O)[O-])c4)c(Oc4cnc5[nH]ccc5c4)c3)CC2)=C(c2ccc(Cl)cc2)C1 + COc1cc2nc(C)nc(NC(C)c3cc(N)cc(C(F)(F)F)c3)c2cc1OC1CCOC1
Second compound 0.1 µM
  IC50: 6340 nM
Second compound 0.316 µM
  IC50: 5020 nM
Second compound 1 µM
  IC50: 3650 nM
Second compound 3.16 µM
  IC50: 2000 nM
Second compound 10 µM
  IC50: 391 nM
[1]
  viability, T/C: 74.8%
[2]
  viability, T/C: 82.6%
[3]
  viability, T/C: 92.4%
[4]
  viability, T/C: 93.3%
[5]
  viability, T/C: 82.9%
[6]
  viability, T/C: 28.2%
[7]
  viability, T/C: 74.5%
[8]
  viability, T/C: 82.8%
[9]
  viability, T/C: 86%
[10]
  viability, T/C: 80.5%
[11]
  viability, T/C: 70.9%
[12]
  viability, T/C: 18.8%
[13]
  viability, T/C: 71.9%
[14]
  viability, T/C: 78.2%
[15]
  viability, T/C: 82.6%
[16]
  viability, T/C: 81.3%
[17]
  viability, T/C: 55.7%
[18]
  viability, T/C: 10.8%
[19]
  viability, T/C: 81%
[20]
  viability, T/C: 82.4%
[21]
  viability, T/C: 86.1%
[22]
  viability, T/C: 80%
[23]
  viability, T/C: 30.2%
[24]
  viability, T/C: 12.2%
[25]
  viability, T/C: 55.7%
[26]
  viability, T/C: 52.6%
[27]
  viability, T/C: 51.3%
[28]
  viability, T/C: 36.8%
[29]
  viability, T/C: 2.22%
[30]
  viability, T/C: 1.29%

## CCN1CCN(Cc2ccc(Nc3ncc(F)c(-c4cc(F)c5nc(C)n(C(C)C)c5c4)n3)nc2)CC1 + COc1cc2nc(C)nc(NC(C)c3cc(N)cc(C(F)(F)F)c3)c2cc1OC1CCOC1
Second compound 0.1 µM
  IC50: > 1000 nM
Second compound 0.316 µM
  IC50: > 1000 nM
Second compound 1 µM
  IC50: > 1000 nM
Second compound 3.16 µM
  IC50: > 1000 nM
Second compound 10 µM
  IC50: 464 nM
[31]
  viability, T/C: 88.2%
[32]
  viability, T/C: 84.9%
[1]
  viability, T/C: 79.2%
[2]
  viability, T/C: 79.9%
[3]
  viability, T/C: 85.4%
[4]
  viability, T/C: 76.7%
[33]
  viability, T/C: 92%
[34]
  viability, T/C: 89.9%
[7]
  viability, T/C: 79.4%
[8]
  viability, T/C: 71.7%
[9]
  viability, T/C: 85.4%
[10]
  viability, T/C: 76%
[35]
  viability, T/C: 93.1%
[36]
  viability, T/C: 80.2%
[13]
  viability, T/C: 87.5%
[14]
  viability, T/C: 77.4%
[15]
  viability, T/C: 87.7%
[16]
  viability, T/C: 80.8%
[37]
  viability, T/C: 90.5%
[38]
  viability, T/C: 101%
[19]
  viability, T/C: 89.3%
[20]
  viability, T/C: 76.7%
[21]
  viability, T/C: 83.2%
[22]
  viability, T/C: 73%
[39]
  viability, T/C: 82.9%
[40]
  viability, T/C: 76%
[25]
  viability, T/C: 74.4%
[26]
  viability, T/C: 91%
[27]
  viability, T/C: 74.7%
[28]
  viability, T/C: 0.5%

## Cn1ncnc1[C@H]1c2n[nH]c(=O)c3cc(F)cc(c23)N[C@@H]1c1ccc(F)cc1 + COc1cc2nc(C)nc(NC(C)c3cc(N)cc(C(F)(F)F)c3)c2cc1OC1CCOC1
Second compound 0.1 µM
  IC50: > 100 nM
Second compound 0.316 µM
  IC50: > 100 nM
Second compound 1 µM
  IC50: > 100 nM
Second compound 3.16 µM
  IC50: > 100 nM
Second compound 10 µM
  IC50: > 100 nM
Second compound 0.1 µM, first compound 0.000316 µM
  viability, T/C: 80.6%
Second compound 0.1 µM, first compound 0.001 µM
  viability, T/C: 78.6%
[31]
  viability, T/C: 85.2%
[32]
  viability, T/C: 67.1%
[1]
  viability, T/C: 70.3%
[2]
  viability, T/C: 66.2%
Second compound 0.316 µM, first compound 0.000316 µM
  viability, T/C: 81.2%
Second compound 0.316 µM, first compound 0.001 µM
  viability, T/C: 90.5%
[33]
  viability, T/C: 85.3%
[34]
  viability, T/C: 63.2%
[7]
  viability, T/C: 67.4%
[8]
  viability, T/C: 65.2%
Second compound 1 µM, first compound 0.000316 µM
  viability, T/C: 86%
Second compound 1 µM, first compound 0.001 µM
  viability, T/C: 88.1%
[35]
  viability, T/C: 84%
[36]
  viability, T/C: 75.1%
[13]
  viability, T/C: 69.3%
[14]
  viability, T/C: 71.1%
Second compound 3.16 µM, first compound 0.000316 µM
  viability, T/C: 94.2%
Second compound 3.16 µM, first compound 0.001 µM
  viability, T/C: 94.6%
[37]
  viability, T/C: 88.7%
[38]
  viability, T/C: 81.2%
[19]
  viability, T/C: 77.8%
[20]
  viability, T/C: 70.3%
Second compound 10 µM, first compound 0.000316 µM
  viability, T/C: 84.7%
Second compound 10 µM, first compound 0.001 µM
  viability, T/C: 70.5%
[39]
  viability, T/C: 75.3%
[40]
  viability, T/C: 67.9%
[25]
  viability, T/C: 57.6%
[26]
  viability, T/C: 55%
